Measured values reported in PubChem BioAssay (NCI).
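48-hour exposure; five concentrations; linearly interpolated endpoints. TGI marks complete inhibition of growth.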

Assays:
Assay in all cases: NCI anticancer screen, dose series, 48 h
[1] = system: HOP-62 NSCLC
[2] = system: MCF7 breast
[3] = system: BT-549 breast
[4] = system: PC-3 prostate
[5] = system: SNB-75 CNS
[6] = system: SW-620 colon
[7] = system: SF-295 CNS
[8] = system: TK-10 renal
[9] = system: SNB-19 CNS
[10] = system: 786-0 renal
[11] = system: A498 renal
[12] = system: U251 CNS
[13] = system: A549 NSCLC
[14] = system: OVCAR-5 ovarian
[15] = system: IGROV1 ovarian
[16] = system: OVCAR-3 ovarian
[17] = system: K-562 leukemia
[18] = system: M14 melanoma
[19] = system: RPMI-8226 leukemia
[20] = system: NCI-H522 lung
[21] = system: HCT-15 colon
[22] = system: UACC-257 melanoma
[23] = system: CCRF-CEM leukemia
[24] = system: LOX IMVI melanoma
[25] = system: MDA-MB-435
[26] = system: MOLT-4 leukemia
[27] = system: SN12C renal
[28] = system: OVCAR-8 ovarian
[29] = system: SK-MEL-2 melanoma
[30] = system: MALME-3M melanoma
[31] = system: EKVX NSCLC
[32] = system: NCI-H226 lung
[33] = system: MDA-MB-231 breast
[34] = system: SK-OV-3 ovarian
[35] = system: SF-268 CNS
[36] = system: DU-145 prostate
[37] = system: UACC-62 melanoma
[38] = system: SK-MEL-28 melanoma
[39] = system: NCI/ADR-RES ovarian
[40] = system: KM12 colon
[41] = system: T-47D breast
[42] = system: SR leukemia
[43] = system: HS 578T breast
[44] = system: ACHN renal
[45] = system: HCT-116 colon
[46] = system: COLO 205 colon
[47] = system: NCI-H23 lung
[48] = system: HL-60(TB) leukemia
[49] = system: HT29 colon
[50] = system: RXF 393 renal
[51] = system: MDA-N
[52] = system: SK-MEL-5 melanoma
[53] = system: OVCAR-4 ovarian
[54] = system: UO-31 renal
[55] = system: NCI-H460 lung
[56] = system: HCC-2998 colon
[57] = system: SF-539 CNS
[58] = system: HOP-92 NSCLC
[59] = system: CAKI-1 renal

Measured: TGI

NC(=O)CNC(=O)[C@@H]1CC(OCCC(=O)O)CN1C(=O)C1CCCN1C(=O)OCc1ccccc1 (stereo partly specified)
> 100 µM: [1] | [2] | [3] | [4] | [5] | [6] | [7] | [8] | [9] | [10] | [11] | [12] | [13] | [14] | [15] | [16] | [17] | [18] | [19] | [20] | [21] | [22] | [23] | [24] | [25] | [26] | [27] | [28] | [29] | [30] | [31] | [32] | [33] | [34] | [35] | [36] | [37] | [38] | [39] | [40] | [41] | [42] | [43] | [44] | [45] | [46] | [47] | [48] | [49] | [50] | [51] | [52] | [53] | [54] | [55]

O=[N+]([O-])c1ccccc1OCCOc1ccccc1[N+](=O)[O-]
> 100 µM: [1] | [2] | [56] | [3] | [4] | [5] | [6] | [7] | [8] | [9] | [10] | [11] | [12] | [13] | [57] | [14] | [15] | [16] | [17] | [18] | [19] | [20] | [21] | [58] | [22] | [23] | [24] | [25] | [26] | [27] | [28] | [29] | [30] | [31] | [32] | [33] | [34] | [35] | [36] | [37] | [38] | [39] | [40] | [41] | [42] | [43] | [44] | [59] | [45] | [46] | [47] | [48] | [49] | [50] | [51] | [52] | [53] | [54] | [55]

c1ccc(NN(Cc2cnccn2)c2ccccc2)cc1
51.2 µM: [23]
89.7 µM: [58]
> 100 µM: [1] | [2] | [3] | [4] | [5] | [6] | [7] | [8] | [9] | [10] | [11] | [12] | [13] | [57] | [14] | [15] | [16] | [17] | [18] | [19] | [20] | [21] | [22] | [24] | [25] | [26] | [27] | [28] | [29] | [30] | [31] | [32] | [33] | [34] | [35] | [36] | [37] | [38] | [39] | [40] | [41] | [42] | [43] | [44] | [59] | [45] | [46] | [47] | [48] | [49] | [50] | [51] | [52] | [53] | [55]
